ChEMBL document CHEMBL1649485, “High prevalence of qnr genes in commensal enterobacteria from healthy children in Peru and Bolivia” (2009)
Converted amounts (≈) assume the structure as drawn.

Tests used:
[1] = system: Klebsiella pneumoniae; assay: Antimicrobial activity against Klebsiella pneumoniae isolate C2 harboring qnrS1 gene by agar dilution method; format: functional
[2] = system: Klebsiella pneumoniae; assay: Antimicrobial activity against Klebsiella pneumoniae isolate Y1 harboring qnrB19 gene by agar dilution method; format: functional
[3] = system: Klebsiella pneumoniae; assay: microbe, parasite or virus in culture; conditions: isolate M2
Description: Antimicrobial activity against Klebsiella pneumoniae isolate M2 harboring qnrS1 gene by agar dilution method

[4] = system: Klebsiella oxytoca; assay: Antimicrobial activity against Klebsiella oxytoca isolate M2 harboring qnrS1 gene by agar dilution method; format: functional
[5] = system: Klebsiella pneumoniae; assay: Antimicrobial activity against Klebsiella pneumoniae isolate M1 harboring qnrB19 gene by agar dilution method; format: functional
[6] = system: Escherichia hermannii; assay: Antimicrobial activity against Escherichia hermannii clinical isolate by agar dilution method; format: functional; conditions: Atlantibacter hermannii
[7] = system: Klebsiella oxytoca; assay: Antimicrobial activity against Klebsiella oxytoca isolate M1 harboring qnrB19 gene by agar dilution method; format: functional
[8] = system: Escherichia coli; assay: Antimicrobial activity against qnrB/S-positive Escherichia coli clinical isolate assessed as resistant isolate; format: functional
[9] = system: Enterobacter cloacae; assay: Antimicrobial activity against Enterobacter cloacae clinical isolate assessed as resistant isolate; format: functional
[10] = system: Citrobacter freundii; assay: Antimicrobial activity against Citrobacter freundii clinical isolate assessed as resistant isolate; format: functional
[11] = system: Citrobacter freundii; assay: Antimicrobial activity against Citrobacter freundii isolate V1 harboring qnrB10 gene by agar dilution method; format: functional
[12] = system: Citrobacter freundii; assay: Antimicrobial activity against Citrobacter freundii clinical isolate by agar dilution method; format: functional
[13] = system: Escherichia hermannii; assay: Antimicrobial activity against Escherichia hermannii isolate C1 harboring qnrB19 gene by agar dilution method; format: functional; conditions: Atlantibacter hermannii
[14] = system: Enterobacter cloacae; assay: Antimicrobial activity against Enterobacter cloacae isolate V1 harboring qnrB2 gene by agar dilution method; format: functional
[15] = system: Klebsiella pneumoniae; assay: Antimicrobial activity against qnrB-positive Klebsiella pneumoniae clinical isolate assessed as susceptible isolate; format: functional
[16] = system: Escherichia coli; assay: Antimicrobial activity against Escherichia coli isolate M3 harboring qnrS1 gene by agar dilution method; format: functional
[17] = system: Escherichia coli; assay: Antimicrobial activity against qnrB-positive Escherichia coli clinical isolate assessed as resistant isolate; format: functional
[18] = system: Klebsiella pneumoniae; assay: Antimicrobial activity against Klebsiella pneumoniae isolate V2 harboring qnrS1 gene by agar dilution method; format: functional
[19] = system: Klebsiella oxytoca; assay: Antimicrobial activity against Klebsiella oxytoca clinical isolate assessed as resistant isolate; format: functional
[20] = system: Escherichia hermannii; assay: Antimicrobial activity against Escherichia hermannii clinical isolate assessed as resistant isolate; format: functional, Atlantibacter hermannii
[21] = system: Klebsiella oxytoca; assay: Antimicrobial activity against Klebsiella oxytoca clinical isolate by agar dilution method; format: functional
[22] = system: Escherichia coli; assay: Antimicrobial activity against qnrS-positive Escherichia coli clinical isolate assessed as resistant isolate; format: functional
[23] = system: Klebsiella pneumoniae; assay: Antimicrobial activity against qnrB-positive Klebsiella pneumoniae clinical isolate assessed as resistant isolate; format: functional
[24] = system: Escherichia coli; assay: Antimicrobial activity against qnrB-positive Escherichia coli clinical isolate by agar dilution method; format: functional
[25] = system: Klebsiella pneumoniae; assay: Antimicrobial activity against Klebsiella pneumoniae isolate Y2 harboring qnrS1 gene by agar dilution method; format: functional
[26] = system: Escherichia coli; assay: Antimicrobial activity against qnrS-positive Escherichia coli clinical isolate assessed as susceptible isolate; format: functional
[27] = system: Escherichia coli; assay: Antimicrobial activity against qnrB/S-positive Escherichia coli clinical isolate assessed as susceptible isolate; format: functional
[28] = system: Klebsiella pneumoniae; assay: Antimicrobial activity against qnrS-positive Klebsiella pneumoniae clinical isolate assessed as resistant isolate; format: functional
[29] = system: Enterobacter cloacae; assay: Antimicrobial activity against Enterobacter cloacae clinical isolate by agar dilution method; format: functional
[30] = system: Klebsiella pneumoniae; assay: Antimicrobial activity against qnrS-positive Klebsiella pneumoniae clinical isolate assessed as susceptible isolate; format: functional
[31] = system: Escherichia coli; assay: Antimicrobial activity against qnrB-positive Escherichia coli clinical isolate assessed as susceptible isolate; format: functional
[32] = system: Klebsiella oxytoca; assay: Antimicrobial activity against Klebsiella oxytoca clinical isolate assessed as susceptible isolate; format: functional; conditions: pooled result: one value given for 4 cell lines, strains, targets or settings
[33] = system: Escherichia coli; assay: Antimicrobial activity against Escherichia coli isolate M2 harboring qnrS1 gene by agar dilution method; format: functional
[34] = system: Escherichia coli; assay: Antimicrobial activity against qnrB/S-positive Escherichia coli clinical isolate by agar dilution method; format: functional
[35] = system: Klebsiella pneumoniae; assay: Antimicrobial activity against qnrB-positive Klebsiella pneumoniae clinical isolate by agar dilution method; format: functional
[36] = system: Escherichia coli; assay: Antimicrobial activity against Escherichia coli isolate Y1 harboring qnrB19 gene by agar dilution method; format: functional
[37] = system: Escherichia coli; assay: Antimicrobial activity against Escherichia coli isolate M1 harboring qnrB19 gene by agar dilution method; format: functional
[38] = system: Klebsiella pneumoniae; assay: microbe, parasite or virus in culture; conditions: isolate V1
Description: Antimicrobial activity against Klebsiella pneumoniae isolate V1 harboring qnrB2 gene by agar dilution method

[39] = system: Escherichia coli; assay: Antimicrobial activity against Escherichia coli isolate V1 harboring qnrB19 gene by agar dilution method; format: functional
[40] = system: Escherichia coli; assay: Antimicrobial activity against Escherichia coli isolate Y2 harboring qnrS1 gene by agar dilution method; format: functional
[41] = system: Escherichia coli; assay: Antimicrobial activity against qnrS-positive Escherichia coli clinical isolate by agar dilution method; format: functional
[42] = system: Escherichia coli; assay: Antimicrobial activity against Escherichia coli isolate Y3 harboring qnrS1 gene by agar dilution method; format: functional
[43] = system: Klebsiella pneumoniae; assay: Antimicrobial activity against qnrS-positive Klebsiella pneumoniae clinical isolate by agar dilution method; format: functional
[44] = system: Escherichia coli; assay: Antimicrobial activity against Escherichia coli isolate C1 harboring qnrB19 gene by agar dilution method; format: functional

## O=C(O)c1cn(C2CC2)c2cc(N3CCNCC3)c(F)cc2c1=O [CIPROFLOXACIN]
[1]
  MIC: 2 µg/mL (≈ 6.04 µM)
[2]
  MIC: 2 µg/mL (≈ 6.04 µM)
[3]
  MIC: 4 µg/mL (≈ 12.1 µM)
[4]
  MIC: 4 µg/mL (≈ 12.1 µM)
[5]
  MIC: 2 µg/mL (≈ 6.04 µM)

## C[C@H]1COc2c(N3CCN(C)CC3)c(F)cc3c(=O)c(C(=O)O)cn1c23.C[C@H]1COc2c(N3CCN(C)CC3)c(F)cc3c(=O)c(C(=O)O)cn1c23.O [LEVOFLOXACIN]
[6]
  MIC: 0.25 µg/mL
[7]
  MIC: 0.5 µg/mL
[8]
  Activity: 0%
[9]
  Activity: 0%
[1]
  MIC: 2 µg/mL
[10]
  Activity: 0%
[11]
  MIC: 0.5 µg/mL
[12]
  MIC: 0.25 µg/mL
[13]
  MIC: 0.25 µg/mL
[14]
  MIC: 2 µg/mL
[15]
  Activity: 100%
[16]
  MIC: 2 µg/mL
[17]
  Activity: 4%
[18]
  MIC: 2 µg/mL
[19]
  Activity: 0%
[20]
  Activity: 0%
[21]
  MIC: 0.25 µg/mL
[22]
  Activity: 0%
[23]
  Activity: 0%
[24]
  MIC50: 1 µg/mL
  MIC90: 4 µg/mL
[25]
  MIC: 2 µg/mL
[4]
  MIC: 4 µg/mL
[26]
  Activity: 100%
[5]
  MIC: 2 µg/mL
[27]
  Activity: 100%
[28]
  Activity: 13%
[29]
  MIC: 0.25 µg/mL
[30]
  Activity: 87%
[31]
  Activity: 79%
[32]
  Activity: 71%

## CCn1cc(C(=O)O)c(=O)c2ccc(C)nc21 [NALIDIXIC ACID]
[6]
  MIC: 16 µg/mL (≈ 68.9 µM)
[33]
  MIC: 16 µg/mL (≈ 68.9 µM)
[34]
  MIC: 16 µg/mL (≈ 68.9 µM)
[35]
  MIC: 16 µg/mL (≈ 68.9 µM)
[7]
  MIC: 16 µg/mL (≈ 68.9 µM)
[8]
  Activity: 50%
[36]
  MIC: 32 µg/mL (≈ 138 µM)
[9]
  Activity: 57%
[1]
  MIC: 32 µg/mL (≈ 138 µM)
[10]
  Activity: 57%
[11]
  MIC: 16 µg/mL (≈ 68.9 µM)
[12]
  MIC: 16 µg/mL (≈ 68.9 µM)
[13]
  MIC: 32 µg/mL (≈ 138 µM)
[14]
  MIC: 32 µg/mL (≈ 138 µM)
[37]
  MIC: 16 µg/mL (≈ 68.9 µM)
[38]
  MIC: 32 µg/mL (≈ 138 µM)
[39]
  MIC: 32 µg/mL (≈ 138 µM)
[15]
  Activity: 20%
[2]
  MIC: 64 µg/mL (≈ 276 µM)
[16]
  MIC: 32 µg/mL (≈ 138 µM)
[17]
  Activity: 87%
[18]
  MIC: 16 µg/mL (≈ 68.9 µM)
[19]
  Activity: 57%
[20]
  Activity: 57%
[40]
  MIC: 16 µg/mL (≈ 68.9 µM)
[21]
  MIC: 16 µg/mL (≈ 68.9 µM)
[41]
  MIC: 16 µg/mL (≈ 68.9 µM)
[22]
  Activity: 0%
[3]
  MIC: 32 µg/mL (≈ 138 µM)
[23]
  Activity: 80%
[24]
  MIC50: 32 µg/mL (≈ 138 µM)
  MIC90: > 128 µg/mL
[25]
  MIC: 32 µg/mL (≈ 138 µM)
[42]
  MIC: 16 µg/mL (≈ 68.9 µM)
[4]
  MIC: > 128 µg/mL
[43]
  MIC: 16 µg/mL (≈ 68.9 µM)
[26]
  Activity: 100%
[5]
  MIC: 32 µg/mL (≈ 138 µM)
[27]
  Activity: 50%
[28]
  Activity: 87%
[44]
  MIC: 32 µg/mL (≈ 138 µM)
[29]
  MIC: 16 µg/mL (≈ 68.9 µM)
[30]
  Activity: 13%
[31]
  Activity: 13%
[32]
  Activity: 43%
